# Data reported in ChEMBL document CHEMBL3994620, “Synthesis and antioxidant activity of a procyanidin B3 analogue” (Bioorg Med Chem Lett, 2017).
# Assay: Antioxidant activity assessed as second order rate constant for galvinoxyl radical scavenging activity by UV-vis spectrophotometry
# Assay type: functional
row,SMILES,K
1,Oc1cc(O)c2c(c1)O[C@H](c1ccc(O)c(O)c1)[C@@H](O)C2,26 M⁻¹ s⁻¹
2,Oc1cc(O)c2c(c1)O[C@H](c1ccc(O)c(O)c1)[C@@H](O)[C@@H]2c1c(O)cc(O)c2c1O[C@H](c1ccc(O)c(O)c1)[C@@H](O)C2,1 ×10² /M/s
3,CC1(C)O[C@H]2Cc3c(O)cc(O)c([C@@H]4c5c(O)cc(O)cc5O[C@H](c5ccc(O)c(O)c5)[C@H]4O)c3O[C@@H]2c2cc(O)c(O)cc21,1.89 ×10² /M/s
